Key:
[1] = tested on: tracheae (zig-zag strips from passively sensitized guinea pigs); experiment: passive Schultz-Dale reaction (bronchodilatory effects), relaxation of antigen-contracted tracheal strips; design: species or system guinea pig (male Hartley); settings: Cavia porcellus; EWA (1 μg/ml)-induced contraction, guinea pig trachea, 37° C., cumulative addition; read-out: Bronchodilatory effect IC50 (concentration to produce 50% relaxation)
Protocol: Effects on passive Schultz-Dale reaction (bronchodilatory effects)
After 24 hours, the guinea pigs were stunned and exsanguinated, and then tracheae were removed. The zig-zag strips of the tracheae were prepared by the method of Emmerson, et al. [J. Pharm. […] After the contraction reached stable plateau, the compounds were cumulatively added in order to get concentration-relaxation curves.

[2] = tested on: PCA reaction; experiment: 48 hour-homologous passive cutaneous anaphylaxis (PCA) test in rats (antiallergic effects); format: in vivo, rat (male Wistar); design: key to Anti-PCA MED (minimum effective dosage): NE: no effect; settings: rat, oral, 1 hour before PCA challenge, inhibition 50% or higher in at least one of three animals; for minimal effective dose: read-out: Anti-PCA MED (minimum effective dosage)
Protocol: Antiallergic effects: Antiallergic effects of compounds were studied by passive cutaneous anaphylaxis (PCA) test in rats. Male Wistar rats weighing 180 to 220 g were used for collection of antiserum and Male Wistar rats weighing 120 to 140 g for PCA test. (A) Preparation of anti-EWA serum in rat Anti-EWA rat serum was prepared by the method of Stotland, et al [Can. J. Physiol. Pharmacol., 52, 1114, (1974)] as follows. That is, 1 mg of EWA, 20 mg of aluminium hydroxide gel and 0.5 ml of mixed vaccine of pertussis, diphtheria and tetanus were mixed, and the mixture was subcutaneously injected in four foodpads of rats. After 14 days, the blood of sensitized rats was collected from the carotid artery. The serum was separated by centrifugation from collected blood, and stored at -80° C. The 48 hour homologous PCA titer of the serum was 1 :64. (B) Effects on 48 hour-homologous PCA tests in rats Three rats in each group were passively sensitized with 8 hold diluted anti-EWA serum (0.05 ml) intradermally injected in two sites of shaved dosal area of rats. After 47 hours, the test compound or its solvent (saline or CMC solution) was orally administrated, and 1 hour thereafter, PCA reaction was induced by intravenous administration of 1% Evan's blue in saline (0.5 ml/100 g) containing 2 mg of EWA. After 30 minutes, animals were sacrificed by bleeding and dorsal skin was stripped to determine the leakage of dye at blue spots, by the method of Katayama et al. [Microbiol. Immunol., 22, 89 (1978)]. The blue-dyed spots were dissected and placed in a test tube containing 1 ml of 1N sodium hydroxide and incubated at 37° C. for 48 hours. Then, 9 ml of a mixture of 0.6N phosphate:acetone (5:13) was added thereto. After shaking, the mixture was centrifuged at 2500 rpm for 10 minutes. A supernatant was separated, and extravasated dye in the supernatant was determined photometrically at 620 nm. Inhibition percent was calculated as follows: [formula]

[3] = tested on: dd-mice; experiment: Acute toxicity (minimum lethal dose); format: in vivo; settings: male dd-mice, mortality for seven days
Protocol: The compounds were orally administrated (po) or intraperitoneally administrated (ip) to three male dd-mice weighing 20±1 g. Minimum lethal dose (MLD) was determined by observing the mortality for seven days after the administration.

Structure (SMILES)	IC50 [1]	minimal effective dose [2]	Acute Toxicity MLD ip (minimum lethal dose) [3]	Acute Toxicity MLD po (minimum lethal dose) [3]	Anti-PCA MED (minimum effective dosage) [2]
CC(CC1OCCc2ccccc21)NCC(O)c1ccc(O)cc1 (centres unmarked) [Compound 1, 1-(4-Hydroxyphenyl)-2-[2-(isochroman-1-yl)-1-methylethylamino]ethanol]	12.8 nM	10 mg/kg	> 100 mg/kg	> 300 mg/kg	–
CC(CC1OCCc2ccccc21)NC[C@H](O)c1ccc(O)cc1 (some centres unmarked) [Compound 2, (IR)-1-(4-hydroxyphenyl)-2-[2-(isochroman-1-yl)-1-methylethylamino]ethanol]	0.612 nM	10 mg/kg	> 100 mg/kg	> 300 mg/kg	–
CC(CC1OCCc2ccccc21)NC[C@@H](O)c1ccc(O)cc1 (stereo partly drawn) [Compound 3, (1S)-1-(4-hydroxyphenyl)-2-[2-(isochroman-1-yl)-1-methylethylamine]ethanol]	2.76 nM	–	–	–	NE
CC(CC1OCCc2ccccc21)NCC(O)c1ccccc1 (centres unmarked) [Compound 4, 2-[2-(Isochroman-1-yl)-1-methylethylamino]-1-phenylethanol]	260 nM	10 mg/kg	100 mg/kg	200 mg/kg	–
CC(CC1OCCc2ccccc21)NC[C@H](O)c1ccccc1 (stereo partly drawn) [Compound 5, (1R)-2-[2-(Isochroman-1-yl)-1-methylethylamino]-1-phenylethanol]	19 nM	1 mg/kg	25 mg/kg	200 mg/kg	–
CC(CC1OCCc2ccccc21)NC[C@@H](O)c1ccccc1 (stereo partly drawn) [Compound 6, (1S)-2-[2-(Isochroman-1-yl)-1-methylethylamino]-1-phenylethanol]	12000 nM	–	> 100 mg/kg	200 mg/kg	NE
CC(CC1OCCc2ccccc21)NCC(O)c1cccc(O)c1 (centres unmarked) [Compound 7, 1-(3-Hydroxyphenyl)-2-[2-(isochroman-1-yl)-1-methylethylamino]ethanol]	11 nM	10 mg/kg	100 mg/kg	300 mg/kg	–
CC(CC1OCCc2ccccc21)NCC(O)c1ccccc1O (centres unmarked) [Compound 8, 1-(2-Hydroxyphenyl)-2-[2-(isochroman-1-yl)-1-methylethylamino]ethanol]	53 nM	–	100 mg/kg	200 mg/kg	NE
CC(CC1OCCc2ccccc21)NCC(O)c1cc(O)cc(O)c1 (centres unmarked) [Compound 9, 1-(3,5-Dihydroxyphenyl)-2-[2-(isochroman-1-yl)-1-methylethylamino]ethanol]	1.18 nM	–	–	200 mg/kg	–
COc1ccc(C(O)CNC(C)CC2OCCc3ccccc32)cc1 (centres unmarked) [Compound 10, 2-[2-(Isochroman-1-yl)-1-methylethylamino]-1-(4-methoxyphenyl)ethanol]	81 nM	10 mg/kg	100 mg/kg	200 mg/kg	–
CC(CC1OCCc2ccccc21)NCC(O)c1ccc(F)cc1 (centres unmarked) [Compound 16, 1-(4-Fluorophenyl)-2-[2-(isochroman-1-yl)-1-methylethylamino]ethanol]	61.4 nM	–	> 100 mg/kg	300 mg/kg	NE
CC(CC1OCCc2ccccc21)NCC(O)c1ccc(Cl)cc1 (centres unmarked) [Compound 17, 1-(4-Chlorophenyl)-2-[2-(isochroman-1-yl)-1-methylethylamino]ethanol]	3400 nM	1 mg/kg	100 mg/kg	100 mg/kg	–
CC(CC1OCCc2ccccc21)NCC(O)c1cccs1 (centres unmarked) [Compound 20, 2-[2-(Isochroman-1-yl)-1-methylethylamino]-1-thienylethanol]	36.1 nM	–	> 100 mg/kg	> 300 mg/kg	NE
Oc1ccc(C(O)CNCCC2OCCc3ccccc32)cc1 (centres unmarked) [Compound 23, 1-(4-Hydroxyphenyl)-2-[2-(isochroman-1-yl)ethylamino]ethanol]	8.76 nM	–	–	–	–
CC(CC1OCCc2ccccc21)NC(C)C(O)c1ccc(O)cc1 (centres unmarked) [Compound 24, 1-(4-Hydroxyphenyl)-2-[2-(isochroman-1-yl)-1-methylethylamino]-1-propanol]	1600 nM	–	> 100 mg/kg	> 300 mg/kg	NE
COC(CNC(C)CC1OCCc2ccccc21)c1ccc(O)cc1 (centres unmarked) [Compound 25, 2-(4-Hydroxyphenyl)-N-[2-(isochroman-1-yl)-1-methylethylamino]-2-methoxyethylamine]	2.4 nM	–	–	–	NE
CC(CC1OCCc2ccccc21)NCC(O)Cc1ccccc1 (centres unmarked) [Compound 26, 1-[2-(Isochroman-1-yl)-1-methylethylamino]-3-phenyl-2-propanol]	9040 nM	–	–	–	NE
CC(CC1CCCc2ccccc21)NCC(O)c1ccc(O)cc1 (centres unmarked) [Compound 30, 1-(4-Hydroxyphenyl)-2-[2-(1,2,3,4-tetrahydro-1-naphthyl)-1-methylethylamino]ethanol]	1.95 nM	10 mg/kg	> 100 mg/kg	> 300 mg/kg	–
CC(CC1c2ccccc2CCN1C)NCC(O)c1ccc(O)cc1 (centres unmarked) [Compound 31, 1-(4-Hydroxyphenyl)-2-[1-methyl-2-(2-methyl-1,2,3,4-tetrahydroisoquinolin-1-yl)ethylamino]ethanol]	85 nM	–	> 100 mg/kg	> 300 mg/kg	NE

— patent US5128369A, “Arylalkylamine derivatives” (Kyowa Hakko Kogyo Co., Ltd., priority 1989, dated 1992)
